Assay results: PMC10917278, “Structural insights into the modulation Of SOD1 aggregation By a fungal metabolite Phialomustin-B: Therapeutic potential in ALS” (PLOS ONE, 2024)

Target: T1, SOD1^WT (Homo sapiens, UniProt P00441)
T1 construct: The full-length constructs of SOD1-wild type (aa: 1–145); His-tag (cleaved yes); made in house; host or cells: E. coli BL21 DE3
Assay: Microscale thermophoresis (MST) binding assay, Cys-labeled SOD1^WT
Settings: PBS buffer, protein 25 nM, PB 30.5 nM to 250 μM, 25 °C, SEM n = 3, read-out: binding affinity Kd
Description: To evaluate the binding efficiency of the ligand PB with SOD1^WT, a quantitative binding assay by microscale thermophoresis (MST) was performed. SOD1^WT was labeled at its cysteine residues to ensure non-interference with lysine-containing binding sites of PB (K9, K122, and K128). The cysteine label targeted free cysteines lying away from the ligand-binding site region. The fluorescently labeled SOD1^WT and 16 different concentrations of PB from 250 μM to 30.5 nM were prepared to evaluate the binding interactions between SOD1^WT and PB, as discussed in the methodology. […] The binding affinity was calculated based on the directional movement of molecules along a temperature gradient and the thermophoretic properties of the protein-ligand molecules.
Fig 4 MST interaction analysis of fluorescently labeled SOD1^WT against PB. The binding of PB to fluorescently Cys-labeled SOD1^WT is quantified in PBS buffer. The concentration of PB varied from 30.5 nM to 250 μM, while the protein SOD1^WT was kept constant at 25 nM. MST experiments were conducted at 20% LED excitation and medium MST power at 25 °C. […] Error bars indicate the standard error of the mean, SEM (n = 3).
Binding studies were performed for SOD1^WT and the ligands using microscale thermophoresis (MST). […]

T1 sequence (P00441 whole entry): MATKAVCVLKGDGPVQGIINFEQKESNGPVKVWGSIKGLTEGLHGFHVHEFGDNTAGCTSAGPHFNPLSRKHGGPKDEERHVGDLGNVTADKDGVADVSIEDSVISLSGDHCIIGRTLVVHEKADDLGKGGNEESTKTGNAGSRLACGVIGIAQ

## CCCC[C@H](C)/C=C(C)/C=C/C(=O)O [PB, (S, 2E, 4E)-4,6-dimethyldeca-2,4-dienoic acid]
  Kd: 3.7 ± 1.2 µM
